Consider 14 compounds from ChEMBL document CHEMBL1201862, “PubChem BioAssay data set” (2004).

In general, EC50 refers to the concentration that produces a half-maximal response. For orientation: IC50 means the concentration that inhibits the measured activity by half. In general, CC50 refers to the concentration that lowers cell viability or growth by half.

The nature of test [1]: A cytotoxicity screen of small molecule inhibitors of the PhoP region in Salmonella typhi identified in the primary screen. [Related pubchem assays: 1850, 1864, 1985 ]. Format: functional.
The target of test [2] is T1, Short transient receptor potential channel 4 (Mus musculus, UniProt Q9QUQ5).
T1 sequence (Q9QUQ5 whole entry): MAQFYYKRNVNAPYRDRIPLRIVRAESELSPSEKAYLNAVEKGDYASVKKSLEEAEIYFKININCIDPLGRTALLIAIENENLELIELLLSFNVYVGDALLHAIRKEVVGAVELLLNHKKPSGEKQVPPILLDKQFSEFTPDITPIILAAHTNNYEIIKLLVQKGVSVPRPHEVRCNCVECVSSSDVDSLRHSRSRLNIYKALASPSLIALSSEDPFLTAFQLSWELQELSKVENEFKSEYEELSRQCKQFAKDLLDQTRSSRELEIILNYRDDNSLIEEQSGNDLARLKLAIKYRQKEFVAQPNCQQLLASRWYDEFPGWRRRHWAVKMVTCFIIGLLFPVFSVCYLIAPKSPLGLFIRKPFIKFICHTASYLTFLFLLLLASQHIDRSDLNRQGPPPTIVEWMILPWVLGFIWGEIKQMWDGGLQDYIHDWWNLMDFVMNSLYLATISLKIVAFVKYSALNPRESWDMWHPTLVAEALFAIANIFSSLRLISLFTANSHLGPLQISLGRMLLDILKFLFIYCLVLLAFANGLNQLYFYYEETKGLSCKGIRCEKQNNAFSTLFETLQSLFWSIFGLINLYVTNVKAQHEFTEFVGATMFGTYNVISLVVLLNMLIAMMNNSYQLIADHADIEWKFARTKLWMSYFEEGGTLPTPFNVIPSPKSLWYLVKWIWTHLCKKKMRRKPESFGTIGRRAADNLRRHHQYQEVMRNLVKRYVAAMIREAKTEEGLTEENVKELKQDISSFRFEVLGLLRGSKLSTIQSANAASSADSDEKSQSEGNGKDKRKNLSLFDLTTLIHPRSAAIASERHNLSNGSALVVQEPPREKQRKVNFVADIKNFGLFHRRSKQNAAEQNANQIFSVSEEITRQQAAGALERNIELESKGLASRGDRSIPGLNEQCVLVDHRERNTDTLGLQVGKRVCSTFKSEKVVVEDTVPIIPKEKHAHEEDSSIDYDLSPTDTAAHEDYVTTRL
The test is described as follows: mouse TRPC4 channel inhibitors, dose response, cell-based, HEK293 TRPC4/mu-opioid, Fluo-4 calcium (AID 434942).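 Further: potency of inhibitors blocking the TRPC4 calcium response.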 The class given is functional.

In test [3] the target is T2, Protein skinhead-1 (Caenorhabditis elegans, UniProt P34707).
T2 sequence (P34707 whole entry): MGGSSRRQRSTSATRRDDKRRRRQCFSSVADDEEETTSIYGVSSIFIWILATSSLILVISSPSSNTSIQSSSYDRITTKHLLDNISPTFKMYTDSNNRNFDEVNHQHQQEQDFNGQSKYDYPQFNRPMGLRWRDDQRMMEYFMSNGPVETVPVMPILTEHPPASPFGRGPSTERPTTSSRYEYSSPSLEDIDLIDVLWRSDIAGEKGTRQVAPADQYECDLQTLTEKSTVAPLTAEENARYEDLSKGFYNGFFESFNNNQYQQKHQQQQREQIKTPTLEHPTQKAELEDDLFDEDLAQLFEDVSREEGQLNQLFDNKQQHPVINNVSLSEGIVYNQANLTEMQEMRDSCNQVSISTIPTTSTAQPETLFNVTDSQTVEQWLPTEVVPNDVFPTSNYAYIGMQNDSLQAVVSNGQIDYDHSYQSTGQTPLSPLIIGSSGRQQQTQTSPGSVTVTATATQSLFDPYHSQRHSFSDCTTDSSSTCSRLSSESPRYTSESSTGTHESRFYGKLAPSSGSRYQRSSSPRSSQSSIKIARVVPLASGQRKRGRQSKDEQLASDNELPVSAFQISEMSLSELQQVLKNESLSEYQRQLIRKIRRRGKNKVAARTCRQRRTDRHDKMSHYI
Format: functional.

Test [4] is described as follows: Vero E6 cell cytotoxicity, dose response, cytotoxicity control for non-replicating M. tuberculosis project, secondary assay (AID 492998). The class given is functional, VeroE6. As to conditions: Vero C1008.
Test [5] can be described thus: cells. Format: functional.
Test [6] in a line: THP-1 cell cytotoxicity, dose response, cytotoxicity control for non-replicating M. tuberculosis project (AID 489025). Format: functional.
Test [7] deals with Glucose-6-phosphate 1-dehydrogenase (Homo sapiens, UniProt P11413). The test is described as follows: human G6PD enzyme inhibitors, dose response, selectivity assay for P. falciparum G6PD inhibitor project, biochemical, fluorescence (AID 504792). Format: functional.
Glucose-6-phosphate 1-dehydrogenase, sequence (P11413 whole entry): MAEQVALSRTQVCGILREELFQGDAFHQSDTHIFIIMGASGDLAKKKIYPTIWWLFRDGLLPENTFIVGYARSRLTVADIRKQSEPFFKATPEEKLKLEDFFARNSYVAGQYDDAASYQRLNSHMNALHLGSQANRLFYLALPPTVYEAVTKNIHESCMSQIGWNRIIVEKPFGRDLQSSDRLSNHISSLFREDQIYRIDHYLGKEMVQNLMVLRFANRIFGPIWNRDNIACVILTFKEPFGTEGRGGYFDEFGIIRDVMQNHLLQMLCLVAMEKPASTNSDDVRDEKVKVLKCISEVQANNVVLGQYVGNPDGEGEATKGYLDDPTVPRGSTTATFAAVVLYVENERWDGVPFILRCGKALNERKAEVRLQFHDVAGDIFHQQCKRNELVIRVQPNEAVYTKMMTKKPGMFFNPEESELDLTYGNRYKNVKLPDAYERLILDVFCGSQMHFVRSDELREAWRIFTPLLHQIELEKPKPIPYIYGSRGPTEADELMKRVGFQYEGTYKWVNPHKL
Test [8] has as its target Nonstructural protein 1 (Influenza A virus, UniProt Q194T2). Format: functional, Influenza A virus (A/California/07/2009(H1N1)).
The target of test [9] is Genome polyprotein (dengue virus type 2, UniProt P29990). The test is described as follows: Dengue-2 NS5 methyltransferase inhibitors, primary screen, biochemical, confirmation dose response (AID 588689). The class given is functional.
Genome polyprotein, sequence (P29990 2492-3391 limits assumed): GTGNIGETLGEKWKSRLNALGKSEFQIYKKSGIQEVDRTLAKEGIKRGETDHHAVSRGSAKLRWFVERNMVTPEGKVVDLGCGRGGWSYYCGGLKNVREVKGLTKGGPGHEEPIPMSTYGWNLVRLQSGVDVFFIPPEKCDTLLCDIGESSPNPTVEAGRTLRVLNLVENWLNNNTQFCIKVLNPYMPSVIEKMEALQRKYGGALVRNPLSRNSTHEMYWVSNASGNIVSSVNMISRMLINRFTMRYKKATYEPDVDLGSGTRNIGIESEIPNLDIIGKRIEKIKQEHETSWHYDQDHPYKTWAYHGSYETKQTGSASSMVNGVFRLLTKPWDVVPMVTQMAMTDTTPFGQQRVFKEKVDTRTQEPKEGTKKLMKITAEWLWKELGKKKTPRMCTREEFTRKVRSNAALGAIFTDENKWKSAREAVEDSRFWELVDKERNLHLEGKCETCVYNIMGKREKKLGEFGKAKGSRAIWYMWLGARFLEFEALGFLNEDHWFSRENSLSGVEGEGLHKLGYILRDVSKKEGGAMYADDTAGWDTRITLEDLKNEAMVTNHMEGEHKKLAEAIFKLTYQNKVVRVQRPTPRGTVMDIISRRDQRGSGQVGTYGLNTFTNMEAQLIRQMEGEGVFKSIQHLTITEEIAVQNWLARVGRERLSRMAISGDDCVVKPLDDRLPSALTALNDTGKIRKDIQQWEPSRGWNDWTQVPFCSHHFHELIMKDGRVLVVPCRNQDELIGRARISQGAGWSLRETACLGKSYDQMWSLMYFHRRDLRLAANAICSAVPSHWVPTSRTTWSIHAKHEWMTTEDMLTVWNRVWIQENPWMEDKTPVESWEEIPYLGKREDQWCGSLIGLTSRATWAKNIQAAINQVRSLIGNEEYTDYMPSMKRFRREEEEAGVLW
The target in test [10] is T3, Sentrin-specific protease 8 (Homo sapiens, UniProt Q96LD8).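 Further: luminescence read-out of SENP8 inhibition, dose-response confirmation following an ultra-high-throughput screen.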
T3 sequence (Q96LD8 whole entry): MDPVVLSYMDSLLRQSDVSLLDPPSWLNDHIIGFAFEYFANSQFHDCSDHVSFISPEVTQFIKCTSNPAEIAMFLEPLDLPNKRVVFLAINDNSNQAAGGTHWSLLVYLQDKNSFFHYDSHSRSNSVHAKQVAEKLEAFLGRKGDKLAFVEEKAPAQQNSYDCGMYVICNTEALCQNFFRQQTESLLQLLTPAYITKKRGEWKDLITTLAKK
Format: functional.

In test [11] the target is T4, Caspase-3 (Homo sapiens, UniProt P42574).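 Further: Dose-response selectivity test against caspase-3 for candidate inhibitors of sentrin-specific proteases (SENPs).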
T4 sequence (P42574 whole entry): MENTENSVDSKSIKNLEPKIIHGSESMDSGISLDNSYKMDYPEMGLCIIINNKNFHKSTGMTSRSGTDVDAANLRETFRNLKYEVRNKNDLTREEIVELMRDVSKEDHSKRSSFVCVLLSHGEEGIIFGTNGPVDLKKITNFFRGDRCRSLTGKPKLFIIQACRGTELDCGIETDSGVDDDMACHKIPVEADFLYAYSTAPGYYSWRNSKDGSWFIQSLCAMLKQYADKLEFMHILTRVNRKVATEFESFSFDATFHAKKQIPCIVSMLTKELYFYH
Format: functional.

Test [12] concerns the target T5, Sentrin-specific protease 7 (Homo sapiens, UniProt Q9BQF6).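 Further: Luminescence-based dose-response confirmation of ultra-high-throughput screening hits, measuring inhibition of SENP7.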
T5 sequence (Q9BQF6 whole entry): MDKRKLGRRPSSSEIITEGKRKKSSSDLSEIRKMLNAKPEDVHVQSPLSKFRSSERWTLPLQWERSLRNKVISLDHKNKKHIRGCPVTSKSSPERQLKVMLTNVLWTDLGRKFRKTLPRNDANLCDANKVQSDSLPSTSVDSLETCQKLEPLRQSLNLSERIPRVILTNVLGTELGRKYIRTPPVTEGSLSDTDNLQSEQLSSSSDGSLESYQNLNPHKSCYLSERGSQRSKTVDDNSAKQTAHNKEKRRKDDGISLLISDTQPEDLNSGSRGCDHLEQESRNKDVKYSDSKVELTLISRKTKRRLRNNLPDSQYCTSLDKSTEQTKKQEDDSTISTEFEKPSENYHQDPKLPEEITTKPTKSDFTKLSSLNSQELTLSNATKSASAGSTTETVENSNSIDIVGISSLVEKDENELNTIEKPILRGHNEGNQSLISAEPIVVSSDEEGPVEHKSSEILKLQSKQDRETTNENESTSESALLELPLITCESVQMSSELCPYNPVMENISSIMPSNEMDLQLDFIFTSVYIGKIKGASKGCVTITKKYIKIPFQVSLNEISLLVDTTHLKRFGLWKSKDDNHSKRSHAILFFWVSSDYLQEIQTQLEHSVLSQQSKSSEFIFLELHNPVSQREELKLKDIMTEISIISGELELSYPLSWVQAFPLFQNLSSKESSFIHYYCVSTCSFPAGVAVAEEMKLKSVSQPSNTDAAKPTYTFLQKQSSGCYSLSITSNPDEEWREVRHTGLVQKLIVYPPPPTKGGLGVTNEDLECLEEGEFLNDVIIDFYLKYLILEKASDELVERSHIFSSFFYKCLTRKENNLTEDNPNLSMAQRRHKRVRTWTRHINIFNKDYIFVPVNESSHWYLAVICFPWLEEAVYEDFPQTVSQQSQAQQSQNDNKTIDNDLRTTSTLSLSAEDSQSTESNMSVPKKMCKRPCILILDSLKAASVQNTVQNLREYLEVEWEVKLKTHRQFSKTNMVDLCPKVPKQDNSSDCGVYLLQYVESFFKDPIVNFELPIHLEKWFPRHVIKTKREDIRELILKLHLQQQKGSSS
The class given is functional.

Test [13] has as its target T6, Sentrin-specific protease 6 (Homo sapiens, UniProt Q9GZR1).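 Further: Luminescence-based dose-response confirmatory assay of SENP6 inhibition, following up an ultra-high-throughput screen.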
T6 sequence (Q9GZR1 whole entry): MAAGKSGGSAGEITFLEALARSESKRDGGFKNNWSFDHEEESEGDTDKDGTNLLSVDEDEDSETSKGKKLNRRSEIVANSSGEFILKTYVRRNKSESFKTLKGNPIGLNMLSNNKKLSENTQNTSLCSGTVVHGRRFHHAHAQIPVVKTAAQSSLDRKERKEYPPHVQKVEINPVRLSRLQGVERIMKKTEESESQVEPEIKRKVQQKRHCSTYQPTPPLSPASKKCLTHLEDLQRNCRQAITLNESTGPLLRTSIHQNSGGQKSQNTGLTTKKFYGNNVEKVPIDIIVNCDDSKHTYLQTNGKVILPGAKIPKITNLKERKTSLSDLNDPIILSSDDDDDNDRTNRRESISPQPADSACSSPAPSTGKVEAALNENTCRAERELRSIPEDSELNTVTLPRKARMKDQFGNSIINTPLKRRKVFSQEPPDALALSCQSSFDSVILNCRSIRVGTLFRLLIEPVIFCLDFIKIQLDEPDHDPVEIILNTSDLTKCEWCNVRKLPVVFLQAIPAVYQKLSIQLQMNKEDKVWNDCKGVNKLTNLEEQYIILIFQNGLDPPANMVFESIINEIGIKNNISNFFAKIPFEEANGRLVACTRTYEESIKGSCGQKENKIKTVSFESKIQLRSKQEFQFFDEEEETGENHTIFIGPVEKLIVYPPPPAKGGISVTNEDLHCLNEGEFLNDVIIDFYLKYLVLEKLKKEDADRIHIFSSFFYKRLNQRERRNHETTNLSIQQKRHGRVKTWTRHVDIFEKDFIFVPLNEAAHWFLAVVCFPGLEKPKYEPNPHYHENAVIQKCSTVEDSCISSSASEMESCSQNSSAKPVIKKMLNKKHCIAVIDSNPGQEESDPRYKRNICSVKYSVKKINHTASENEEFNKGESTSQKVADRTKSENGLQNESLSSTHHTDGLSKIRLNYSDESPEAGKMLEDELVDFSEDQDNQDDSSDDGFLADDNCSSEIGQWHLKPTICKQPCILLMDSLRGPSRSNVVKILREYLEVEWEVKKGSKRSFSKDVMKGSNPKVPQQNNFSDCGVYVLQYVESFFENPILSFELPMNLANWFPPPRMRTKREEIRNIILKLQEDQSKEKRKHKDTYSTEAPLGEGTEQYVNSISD
The class given is functional.

The nature of test [14]: cells.
The nature of test [15]: HEp-2 cell cytotoxicity, dose response, cytotoxicity control for RSV inhibitor project, HTS (AID 2410). Format: functional. As to conditions: human respiratory syncytial virus.

The source made the active and inactive calls.

Nonstructural protein 1, sequence (Q194T2 whole entry): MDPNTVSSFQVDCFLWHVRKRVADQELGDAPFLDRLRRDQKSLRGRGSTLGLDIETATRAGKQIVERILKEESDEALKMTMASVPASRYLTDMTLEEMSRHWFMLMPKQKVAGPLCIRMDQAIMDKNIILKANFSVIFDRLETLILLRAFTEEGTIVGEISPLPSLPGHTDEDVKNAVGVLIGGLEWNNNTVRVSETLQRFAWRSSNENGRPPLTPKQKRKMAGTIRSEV

Consider `N#Cc1nc(COc2ccc(Br)cc2)oc1NCCCn1ccnc1`, for which the EC50 in test [1] was > 50 µM (active).

Take `CSC1=NC2(C)CCCCC2C12C=CC(=O)C=C2` (centres undefined): the EC50 in test [1] is > 50 µM (active). Regarding `O=C(c1ccco1)N1CCN(C/C=C/c2ccccc2)CC1`, in test [2], the EC50 was 0.596 µM (active). Besides, the IC50 in [3] is > 100 µM (inactive). On to `Fc1ccc(CN2CCC(Cc3ccccc3)CC2)cc1F`, for which the EC50 in test [2] was 4.73 µM (active). Take `C=CCc1ccc(OCC(O)CN2CCN(Cc3ccc(Cl)cc3)CC2)c(OC)c1` (centres undefined): the values for the cytotoxic concentration (CC50) in test [4] and in test [6] were > 20 µM (active) and > 40 µM (active), respectively. For the same compound, in [5], the concentration for half-maximal inhibition (IC50) was 23.3 µM (active). Regarding `COc1cccc(/C=N/NC(=O)c2c(C)nc3ccc(Br)cn23)c1`, the IC50 in test [7] was 36 µM (inactive). `O=C1NCCCC1C(=O)N/N=C/c1cc([N+](=O)[O-])ccc1O` (centres undefined): the EC50 in test [1] was > 50 µM (active). Further, in [8], the IC50 is 16.8 µM (active). For `O=C(c1ccc(Cl)c(Cl)c1)N(Cc1ccco1)c1ccc(O)cc1`, the EC50 in test [2] was 8.41 µM (active). In the case of `Oc1cc(CNCc2ccccc2)c(O)cc1CNCc1ccccc1`, the IC50 is 37.4 µM (active) in [9] and > 80 µM (inactive) in test [7]. On to `Cc1cc(Cl)ccc1OCC(=O)N/N=C/c1ccncc1`, for which, in [1], the EC50 was > 50 µM (active).

Consider `COc1ccc(Cn2nnnc2C(c2cc3ccc(OC)cc3nc2O)N2CCC(C)CC2)cc1` (centres undefined), for which the 50% effective concentration (EC50) in test [1] was > 50 µM (active).

With `Cc1cc(C)nc(N=C(N)NC2CCCCC2)n1`, the EC50 in test [2] is 4.22 µM (active).

As for `CN(C)C(=O)COC(=O)c1ccccc1Nc1ccc(SC(F)F)cc1`, the IC50 in [10] is 17.8 µM (active); in test [11] it was 28.2 µM (active); in test [12], 4.9 µM (active); in [13] it was 12.8 µM (active); in [14] it was 4.77 µM (active). Further, the CC50 in [15] was 8.89 µM (active).

With `OCC1(CCc2ccccc2)CCN(Cc2cc(Cl)ccc2O)CC1`, in test [2], the EC50 was 9.44 µM (active).
